According to US6121323A, “Bishydroxyureas” (3M Innovative Properties Company, priority 1997, dated 2000):

Tests used:
[1] = system: Leukotriene B4 production in whole human blood; test: In vitro human whole blood Leukotriene B4 inhibition; assay type: cell-based; details: A23187 stimulated, read-out: IC50 (concentration producing 50% inhibition of LTB4 production)
Procedure: IN VITRO HUMAN WHOLE BLOOD LEUKOTRIENE B4 INHIBITION
The test method described below measures the ability of compounds to inhibit the production of Leukotriene B4 in whole human blood.
Whole human blood is collected by venipuncture into a 60 cc syringe containing 100 units of heparin.
compounds are disolved in dimethyl sulfoxide. Compounds are tested at concentrations of 100, 33, 11, 3.7, 1.2 and 0.41 μM. Each concentration is tested in duplicate.
Aliquots (1 μL) of compound solution are added to 1 mL polyethylene tubes followed by the addition of 500 μL portion of heparinized blood. The tubes are mixed thoroughly then allowed to preincubate at ambient temperature for 15 minutes. A 25 μL portion of 1 mM Calcium Ionophore A23187 in dimethyl sulfoxide/Tris buffer is added to the tubes. The tubes are mixed thoroughly then incubated at 37° C. for 30 minutes.
The tubes are centrifuged at 2000 rpm for 10 minutes. 100 μL portions of plasma are transferred to 1 mL polyethylene tubes containing 400 μL portions of methanol. The tubes are vortexed then frozen at -20° C. overnight.
The tubes are centrifuged for 10 minutes then 100 μL portions of methanol supernatant are transferred to a 96 well microtiter plate. 10 μL portions are transferred from this plate to a 96 well assay plate. Methanol dilutions of LTB4 standard curve are added to the assay plate. 10 μL portions of blank methanol/plasma supernatant are added to each standard curve well. The assay plate is vacuum dried at ambient temperature. The radioimmunoassay buffer is added, the plate is bath-sonicated for 5 minutes then assayed according to the manufacturer's instructions (Advanced Magnetics; Cambridge, Mass.). Inhibition of LTB4 production is calculated as the ratio of the amount of LTB4 formed in the presence (LTB4 +cpd) and absence (LTB4 no cpd) of compound according the equation below. [formula] IC50 values (concentration of compound producing a 50% inhibition of LTB4 production) are calculated by linear regression analysis of percentage inhibition versus log compound concentration plots.

[2] = system: Leukotriene B4 production in rat blood; test: Rat ex vivo Leukotriene B4 inhibition; assay type: in vivo; details: 2 hours post dose, ex vivo A23187 challenge; for inhibition in vivo at 50 mg/kg: 50 mg/Kg oral
Procedure: RAT EX VIVO LEUKOTRIENE B4 INHIBITION
The test method described below measures the ability of a compound when administrated orally to rats to inhibit the production of Leukotriene B4 in their blood which is drawn and challenged.
Rats (CD, male, non-fasted, 250 g) are lightly anesthetized with carbon dioxide and an approximately 0.75 mL sample of whole blood is obtained via cardiac puncture. The sample is dispensed into 12×75 mm polypropylene tubes containing 8-10 μL of 10,000 units/mL heparin, mixed and then maintained on ice. The rats are allowed to recover approximately one hour then dosed orally with compound dissolved in PEG 400 at a 5 mL/Kg volume. Five (5) rats are utilized per group. Two (2) hours post dose the rats are again anesthetized with carbon dioxide and the blood sampled again via cardiac puncture.
Duplicate 200 μL portions of blood are added to 1.0 mL polypropylene tubes. A 10 μL portion of 1 mM A23 187 Calcium Ionophore in dimethyl sulfoxide/Tris buffer is added to each tube. The tubes are gently vortexed then incubated in a 37° C. water bath for 30 minutes. The tubes are then centrifuged at 4000 rpm for 10 minutes. 50 μL portions of plasma are transferred to 1.0 mL tubes containing 200 μL of methanol. The tubes are vortexed then placed in the freezer overnight.
The tubes are removed from the freezer then centrifuged at 4000 rpm for 10 minutes. 20 μL portions of the methanol/plasma supernatant and 10 μl methanol dilutions of LTB4 standard are transferred to 96 well v-bottom microtiter plates. The plates are vacuum dried at 40° C. A 40 μL portion of LTB4 radioimmunoassay buffer is added to each well. The plate is bath sonicated for 5 minutes then assayed according to the manufacturer's instructions (Advanced Magnetics; Cambridge, Mass.). Percent inhibition values are obtained by comparing the level of LTB4 in the post-dose samples to the level in the pre-dose samples according to the equation below. [formula]

[3] = system: Leukotriene C4 production in mouse peritoneal macrophages; test: In vitro mouse peritoneal macrophage Leukotriene C4 inhibition; assay type: cell-based; details: zymosan stimulated, read-out: Percent Inhibition
Procedure: IN VITRO MOUSE PERITONEAL MACROPHAGE LEUKOTRIENE C4 INHIBITION
The test described below measures the ability of compounds to inhibit the production of Leukotriene C4 in mouse peritoneal macrophages.
Mice (female, CD-1, weighing 25 g) are euthanized by exposure to carbon dioxide. The pertoneal cavity is exposed by peeling back the abdominal skin. A 5 mL portion of media (M199 containing 1% fetal bovine serum, 100 units/mL of penicillin, 100 μg/mL streptomycin, 20 units/mL of heparin and no glutamine) is injected into the exposed peritoneal cavity of each mouse. The lavage fluid is removed and pooled to yield proximately 1×10^6 macrophages/mL. A 2 mL portion of lavage fluid is added to each well of a 24 well sterile multidish and the marcophages are allowed to adhere to the plate for 2 hours at 37° C. in a 5% carbon dioxide atmosphere. The media is removed and each well is washed with 2 mL of phosphate buffered saline (PBS). A 1 mL portion of media, without heparin, but containing 5 μCi/mL of 3H-myoinositol is added to each well and the plates are incubated overnight at 37° C. in a 5% carbon dioxide atmosphere. The media is removed and the cells are washed twice with 2 mL portions of PBS. A 1 mL portion of Puck's saline formulation A containing 1 mM calcium chloride, 1 mM magnesium chloride and 10 mM lithium chloride is added to each well. (The Puck's formulation is made first as a 10× solution which contains 4 g of potassium chloride, 80 g of sodium chloride and 10 g of glucose per liter. The Puck's saline formulation A is made using 10 mL of the 10× Puck's formulation, 0.47 mL of 7.5% sodium bicarbonate and 2 mL of 1M N-2-hydroxyethylpiperazine-N'-2-ethanesulfonic acid per 100 mL.)
Compounds are dissolved in dimethyl sulfoxide. Compounds are tested at concentrations of 10, 1 and 0.1 μM. Each concentration is tested in duplicate.
A 1 μL portion of compound solution or vehicle (DMSO) is added to each well and the plates are incubated for 15 minutes at 37° C. in a 5% carbon dioxide atmosphere. Zymosan is then added to provide a final concentration of 50 μg/mL in each well and the plate is incubated for 1 to 2 hours at 37° C. in a 5% carbon dioxide atmosphere.
Following incubation 200 μL portions of media are transferred to 12×75 mm tubes. The tubes are either assayed immediately or stored at -20° C. until they can be assayed.
The media is assayed for the presence of Leukotriene C4 by radioimmunoassay which is performed according to the manufacturer's instructions (Advanced Magnetics; Cambridge, Mass.). Inhibition of LTC4 production is calculated as the ratio of the amount of LTC4 formed in the presence (LTC4 +cpd) and absence (LTC4 no cpd)of compound according to the equation below. [formula] IC50 values (concentration of compound producing a 50% inhibition of LTC4 production) are calculated by linear regression analysis of percentage inhibition versus log compound concentration plots.

IC50 [1] | SMILES | inhibition in vivo at 10 mg/kg ([2]; 10 mg/Kg oral) | inhibition in vivo at 50 mg/kg [2] | inhibition at 0.1 µM [3] | inhibition at 1 µM [3] | inhibition at 10 µM [3]
550 nM | CN(O)C(=O)Nc1ccc(Cc2ccc(NC(=O)N(C)O)cc2)cc1 [Example 1, 4,4'-Methylenebis(1-hydroxy-1-methyl-3-phenylurea)] | 16% | 93% | 61% | 95% | 100%
1700 nM | CC(C)N(O)C(=O)Nc1ccc(Cc2ccc(NC(=O)N(O)C(C)C)cc2)cc1 [Example 2, 4,4'-Methylenebis(1-hydroxy-1-isopropyl-3-phenylurea)] |  | 34% | 32% | 55% | 54%
320 nM | O=C(Nc1ccc(Cc2ccc(NC(=O)N(O)Cc3ccccc3)cc2)cc1)N(O)Cc1ccccc1 [Example 3, 4,4'-Methylenebis(1-hydroxy-1-benzyl-3-phenylurea)] |  | 6% | 25% | 56% | 74%
